Assay results taken from paper PMC3961306, “Comparison of the Cancer Gene Targeting and Biochemical Selectivities of All Targeted Kinase Inhibitors Approved for Clinical Use” (PLoS ONE, 2014).
Like-named read-outs stand apart in the source and are kept apart here.

Key:
[1] = system: forty-four human cancer cell lines; assay: Cell proliferation assay (ATPlite, 72 hours) in the 44 cell line Oncolines panel; format: cell-based; conditions: Homo sapiens
[2] = target: panel of more than 300 wild-type and mutant kinases (313 kinase panel) (Homo sapiens, UniProt P00533); assay: Kinase profiling in a biochemical assay panel (mobility shift assays and ELISA), %-inhibition at 1 μM; selectivity entropy; conditions: kinase EGFR; compound at 1 μM
[3] = target: panel of more than 300 wild-type and mutant kinases (313 kinase panel) (Homo sapiens, UniProt P00533, L858R); assay: as above; conditions: kinase EGFR(L858R); compound at 1 μM
[4] = target: panel of more than 300 wild-type and mutant kinases (313 kinase panel) (Homo sapiens, UniProt P00533, L861Q); assay: as above; conditions: kinase EGFR(L861Q); compound at 1 μM
[5] = target: panel of more than 300 wild-type and mutant kinases (313 kinase panel) (Homo sapiens, UniProt P00533, T790M); assay: as above; conditions: kinase EGFR(T790M); compound at 1 μM
[6] = target: T1, panel of more than 300 wild-type and mutant kinases (313 kinase panel) (Homo sapiens, UniProt P00540); assay: as above; conditions: kinase MOS; 1 μM
T1 sequence (P00540 1-346): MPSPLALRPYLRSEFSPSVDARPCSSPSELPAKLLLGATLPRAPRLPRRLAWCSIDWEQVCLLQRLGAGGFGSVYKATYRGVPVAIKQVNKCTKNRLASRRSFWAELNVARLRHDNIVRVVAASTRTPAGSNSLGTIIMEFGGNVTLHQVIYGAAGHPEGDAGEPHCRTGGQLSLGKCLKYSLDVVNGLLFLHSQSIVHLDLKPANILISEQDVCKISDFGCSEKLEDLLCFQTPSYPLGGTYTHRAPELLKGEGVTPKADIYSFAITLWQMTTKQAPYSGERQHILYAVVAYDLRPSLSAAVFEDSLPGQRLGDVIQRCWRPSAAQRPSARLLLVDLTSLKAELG

[7] = target: panel of more than 300 wild-type and mutant kinases (313 kinase panel) (Homo sapiens, UniProt P35968); assay: as above; conditions: kinase KDR; compound at 1 μM
[8] = target: panel of more than 300 wild-type and mutant kinases (313 kinase panel) (Homo sapiens, UniProt P42684); assay: as above
[9] = target: panel of more than 300 wild-type and mutant kinases (313 kinase panel) (Homo sapiens, UniProt P51451); assay: as above; conditions: kinase BLK; 1 μM compound
[10] = target: panel of more than 300 wild-type and mutant kinases (313 kinase panel) (Homo sapiens, UniProt P51617); assay: as above; conditions: kinase IRAK1; compound at 1 μM
[11] = target: panel of more than 300 wild-type and mutant kinases (313 kinase panel) (Homo sapiens, UniProt P00519); assay: as above; conditions: kinase ABL; 1 μM compound
[12] = target: panel of more than 300 wild-type and mutant kinases (313 kinase panel) (Homo sapiens, UniProt P07947, T348I); assay: as above; conditions: kinase YES(T348I); compound at 1 μM
[13] = target: panel of more than 300 wild-type and mutant kinases (313 kinase panel) (Homo sapiens, UniProt P11362, V561M); assay: as above; conditions: kinase FGFR1(V561M); compound at 1 μM
[14] = target: panel of more than 300 wild-type and mutant kinases (313 kinase panel) (Homo sapiens, UniProt P15056); assay: as above; conditions: kinase BRAF; 1 μM compound
[15] = 4-4 cell, read-out: cell panel IC50, J82
[16] = 4-4 cell, read-out: cell panel IC50, PA-1
[17] = 4-4 cell, read-out: cell panel IC50, SJCRH30
[18] = 4-4 cell, read-out: cell panel IC50, SR
[19] = 769-P, read-out: cell panel IC50, 769-P
[20] = 786-0, read-out: cell panel IC50, 786-0
[21] = A 172, read-out: cell panel IC50, A-172
[22] = A204, read-out: cell panel IC50, A-204
[23] = A498, read-out: cell panel IC50, A-498
[24] = A549, read-out: cell panel IC50, A-549
[25] = A-375, read-out: cell panel IC50, A375
[26] = A-427, read-out: cell panel IC50, A-427
[27] = ACHN, read-out: cell panel IC50, ACHN
[28] = AN3-CA, read-out: cell panel IC50, AN3 CA
[29] = AU565, read-out: cell panel IC50, AU-565
[30] = BT-20, read-out: cell panel IC50, BT-20
[31] = BT-549, read-out: cell panel IC50, BT-549
[32] = BXPC-3, read-out: cell panel IC50, BxPC-3
[33] = C-33-A, read-out: cell panel IC50, C-33 A
[34] = CAL-27, read-out: cell panel IC50, CAL 27
[35] = CCRF-CEM, read-out: cell panel IC50, CCRF-CEM
[36] = DLD-1, read-out: cell panel IC50, DLD-1
[37] = FaDu, read-out: cell panel IC50, FaDu
[38] = HCT-15, read-out: cell panel IC50, HCT-15
[39] = HCT-116, read-out: cell panel IC50, HCT-116
[40] = Hs-578T, read-out: cell panel IC50, Hs 578T
[41] = Jurkat E6.1, read-out: cell panel IC50, Jurkat E6.1
[42] = K562, read-out: cell panel IC50, K-562
[43] = LS174T, read-out: cell panel IC50, LS 174T
[44] = LoVo, read-out: cell panel IC50, LoVo
[45] = MG-63, read-out: cell panel IC50, MG-63
[46] = MOLT-4, read-out: cell panel IC50, MOLT-4
[47] = MeWo, read-out: cell panel IC50, MeWo
[48] = NCI-H82, read-out: cell panel IC50, NCI-H82
[49] = NCI-H460, read-out: cell panel IC50, NCI-H460
[50] = OVCAR-3, read-out: cell panel IC50, OVCAR-3
[51] = RPMI-7951, read-out: cell panel IC50, RPMI-7951
[52] = SHP77, read-out: cell panel IC50, SHP-77
[53] = SK-N-AS, read-out: cell panel IC50, SK-N-AS
[54] = SW48, read-out: cell panel IC50, SW48
[55] = SW480, read-out: cell panel IC50, SW480
[56] = SW-620, read-out: cell panel IC50, SW620
[57] = U2OS, read-out: cell panel IC50, U-2 OS
[58] = U-87 MG, 72 h, read-out: IC50 in cell proliferation assay (table S5 cellpanel data)

## Cc1cn(-c2cc(NC(=O)c3ccc(C)c(Nc4nccc(-c5cccnc5)n4)c3)cc(C(F)(F)F)c2)cn1 [nilotinib]
[1]; [15]
  IC50: 6.33 µM
[1]; [16]
  IC50: 13.8 µM
[1]; [17]
  IC50: > 31.6 µM
[1]; [18]
  IC50: 4.31 µM
[1]; [19]
  IC50: > 31.6 µM
[1]; [20]
  IC50: 1.11 µM
[1]; [21]
  IC50: 9.78 µM
[1]; [22]
  IC50: 0.584 µM
[1]; [23]
  IC50: 5.04 µM
[1]; [24]
  IC50: 7.29 µM
[1]; [25]
  IC50: 9.58 µM
[1]; [26]
  IC50: 6.73 µM
[1]; [27]
  IC50: 12.3 µM
[1]; [28]
  IC50: 26.1 µM
[1]; [29]
  IC50: 4.63 µM
[1]; [30]
  IC50: > 31.6 µM
[1]; [31]
  IC50: 3.33 µM
[1]; [32]
  IC50: 10.1 µM
[1]; [33]
  IC50: > 31.6 µM
[1]; [34]
  IC50: 9.84 µM
[1]; [35]
  IC50: 6.74 µM
[1]; [36]
  IC50: 7.3 µM
[1]; [37]
  IC50: > 31.6 µM
[1]; [38]
  IC50: 6.17 µM
[1]; [39]
  IC50: 5.75 µM
[1]; [40]
  IC50: 7.43 µM
[1]; [41]
  IC50: 11.8 µM
[1]; [42]
  IC50: 0.026 µM
[1]; [43]
  IC50: 6.11 µM
[1]; [44]
  IC50: 7.46 µM
[1]; [45]
  IC50: 8.78 µM
[1]; [46]
  IC50: 4.36 µM
[1]; [47]
  IC50: > 31.6 µM
[1]; [48]
  IC50: 31.2 µM
[1]; [49]
  IC50: 6.49 µM
[1]; [50]
  IC50: > 31.6 µM
[1]; [51]
  IC50: 7.78 µM
[1]; [52]
  IC50: > 31.6 µM
[1]; [53]
  IC50: 24 µM
[1]; [54]
  IC50: > 31.6 µM
[1]; [55]
  IC50: 18 µM
[1]; [56]
  IC50: 5.3 µM
[1]; [57]
  IC50: 5.38 µM
[1]; [58]
  IC50: > 31.6 µM
[2]
  %-inhibition of EGFR: 17%
[3]
  %-inhibition of EGFR(L858R): 30%
[4]
  %-inhibition of EGFR(L861Q): 11%
[5]
  %-inhibition of EGFR(T790M): 7.54%
[6]
  %-inhibition of MOS: -3.64%
[7]
  %-inhibition of KDR: 22%
[8]; 1 µM
  %-inhibition, ARG: 95%
[9]
  %-inhibition, BLK: 29%
[10]
  %-inhibition of IRAK1: 8%

## COc1cc2nccc(Oc3ccc(NC(=O)C4(C(=O)Nc5ccc(F)cc5)CC4)cc3)c2cc1OC [cabozantinib]
[1]; [15]
  IC50: 22.9 µM
[1]; [16]
  IC50: 17.8 µM
[1]; [17]
  IC50: 15.2 µM
[1]; [18]
  IC50: 24.5 µM
[1]; [19]
  IC50: 30 µM
[1]; [20]
  IC50: 28.7 µM
[1]; [21]
  IC50: 14.6 µM
[1]; [22]
  IC50: 0.082 µM
[1]; [23]
  IC50: 24.1 µM
[1]; [24]
  IC50: 18.5 µM
[1]; [25]
  IC50: > 31.6 µM
[1]; [26]
  IC50: 14.3 µM
[1]; [27]
  IC50: 20.9 µM
[1]; [28]
  IC50: 6.03 µM
[1]; [29]
  IC50: 20.1 µM
[1]; [30]
  IC50: > 31.6 µM
[1]; [31]
  IC50: 30.3 µM
[1]; [32]
  IC50: 24.1 µM
[1]; [33]
  IC50: 19.7 µM
[1]; [34]
  IC50: 23.4 µM
[1]; [35]
  IC50: 19.5 µM
[1]; [36]
  IC50: 22.7 µM
[1]; [37]
  IC50: > 31.6 µM
[1]; [38]
  IC50: 21.9 µM
[1]; [39]
  IC50: 20.9 µM
[1]; [40]
  IC50: 24.2 µM
[1]; [41]
  IC50: 11.5 µM
[1]; [42]
  IC50: 3.94 µM
[1]; [43]
  IC50: > 31.6 µM
[1]; [44]
  IC50: 7.63 µM
[1]; [45]
  IC50: 15.6 µM
[1]; [46]
  IC50: 12.1 µM
[1]; [47]
  IC50: 29.8 µM
[1]; [48]
  IC50: 16.8 µM
[1]; [49]
  IC50: 28.1 µM
[1]; [50]
  IC50: > 31.6 µM
[1]; [51]
  IC50: 14.9 µM
[1]; [52]
  IC50: > 31.6 µM
[1]; [53]
  IC50: 31 µM
[1]; [54]
  IC50: 12.5 µM
[1]; [55]
  IC50: 16.2 µM
[1]; [56]
  IC50: 6.24 µM
[1]; [57]
  IC50: 19.3 µM
[1]; [58]
  IC50: 22.3 µM
[11]
  %-inhibition, ABL: 56%
[2]
  %-inhibition of EGFR: 54%
[3]
  %-inhibition of EGFR(L858R): 30%
[4]
  %-inhibition of EGFR(L861Q): 46%
[5]
  %-inhibition of EGFR(T790M): 32%
[6]
  %-inhibition of MOS: 42%
[12]
  %-inhibition of YES(T348I): 67%
[13]
  %-inhibition of FGFR1(V561M): -2.45%
[14]
  %-inhibition, BRAF: 25%
[8]; kinase ARG, 1 μM compound
  %-inhibition, ARG: 29%
[9]
  %-inhibition, BLK: 100%
[10]
  %-inhibition of IRAK1: 14%
